Data as given in article PMC11912270, “Synthesis and SAR Studies of Acyl-Thiourea Platinum(II) Complexes Yield Analogs with Dual-Stage Antiplasmodium Activity” (ACS Medicinal Chemistry Letters, 2025).

How the values were obtained:
[1] = In vivo pharmacokinetics in female Balb/C mice; design: species or system mouse
Description: In this regard, three replicates of female Balb/C mice were dosed at either 3 mg/kg (intravenously, i.v.) or 10 mg/kg (orally, p.o.). Blood was sampled at specific time intervals over 48 h. The corresponding PK parameters were calculated using noncompartmental analysis (Table 2). […]
1.9. Determination of pharmacokinetic parameters […]
parameters. Compounds were administered either intravenously as a bolus solution […]
Mice were allowed to eat and access water freely.
(§1) To determine the PK parameters, blood samples were collected from the tail vein of the mice into heparinized microcentrifugation tubes at distinct sampling times (0.17, 0.5, 1, 3, 5, 7, 9, 24, and 48 hours for intravenous dosing; 0.5, 1, 3, 5, 7, 9, 24 and 48 hours for oral dosing). All samples were stored at -80 °C until extraction.
For the bioanalysis, frozen whole blood was thawed at room temperature and 1-0 µL of each sample was extracted by protein precipitation (using 100 µL of acetonitrile containing 10 ng/ml of the internal standard, MMV394902). The sample was centrifuged. Supernatants of each sample were injected into the LC-MS/MS column for analysis. The analytical limit of quantitation (LOQ) was 2 ng/mL. The pharmacokinetic parameters were calculated using noncompartmental analysis using PK Solutions 2.0 (Summit Research Services, Montrose, CO, USA) and a curve stripping-based method. […]
1.11. Plasma protein binding (PPB)
To determine the percentage of test compound bound to plasma, ultracentrifugation was used.
The test compound (5 µM of a 10 mM DMSO stock) was used to spike pooled human plasma.
An aliquot of the spiked solution was removed immediately and quenched with carbamazepine, […]

[2] = Glutathione binding UV-Vis titration; conditions: GSH binding
Description: The binding of glutathione (GSH) to the platinum(II) complexes was monitored by observing the decrease in the metal-to-ligand-charge transfer (MLCT) band via a UV-Vis spectrophotometer.8 For this, 1–10 µL aliquots of GSH (0.4 M) in a PBS and DMSO (0.01% DMSO, v/v) mixture was added to a cuvette containing the relevant metal complex (50 µM) in the same solvent mixture. After each addition, the solution was stirred and allowed to incubate at room temperature for 3–5 minutes before recording the absorption spectrum between the wavelength range of 250–700 nm. These titrations were performed in triplicate and the average binding constants (logK) were reported with the standard error of the mean (SEM). The logK values were calculated from the best-fit model (describing a 1:1 association) using Equation 1.

[3] = system: ABS parasites; assay: Dual point activity against ABS parasites; type: cell-based, Plasmodium falciparum; conditions: single biological repeat
Description: Table S2: Dual point activity of platinum(II) complexes against ABS parasites, early- and late-
stage gametocytes. Values are averaged from technical triplicates performed for a single

[4] = Single-point microsomal metabolic stability, mouse; type: in vitro ADME; conditions: mouse liver microsomes, 1 µM
Description: 1.8. Microsomal metabolic stability studies […]
rat IGS, Xenotech), and mouse (male mouse CD1, Xenotech) liver microsomes (0.4 mg/ml) for 30 min at 37 °C. Reactions were quenched by adding ice-cold acetonitrile containing […]
disappearance of the parent compound. Half-life, clearance, and hepatic excretion ratios were determined using standard equations.6,7 Propranolol. […]

[5] = Kinetic solubility by HPLC (pH 6.5); conditions: kinetic, HPLC, pH 6.5
Description: 1.7. Kinetic solubility by HPLC (pH 6.5)
Solubility was measured at pH 6.5 using an adapted miniaturized shake-flask method, in 96-well plate format.4,5 Briefly, 4 µL of a 10 mM stock in DMSO was added to a 96-well plate and evaporated using a GeneVac system. Phosphate buffer pH 6.5 was then added to the wells […]
At the end of this incubation, the […]
in the analysis plate. Analysis was then performed by HPLC-DAD and the solubility of each sample was determined from the corresponding calibration curve. […]

[6] = Plasma protein binding by ultracentrifugation; type: in vitro ADME, human
Description: as §1
For the bioanalysis, frozen whole blood was thawed at room temperature and 1-0 µL of each sample was extracted by protein precipitation (using 100 µL of acetonitrile containing 10 ng/ml of the internal standard, MMV394902). The sample was centrifuged. Supernatants of each sample were injected into the LC-MS/MS column for analysis. The analytical limit of quantitation (LOQ) was 2 ng/mL. The pharmacokinetic parameters were calculated using noncompartmental analysis using PK Solutions 2.0 (Summit Research Services, Montrose, CO, USA) and a curve stripping-based method.
1.10. […]
In preparation for the assay, the required membrane filters were precoated with hexadecane (5%) in hexane and were allowed to dry. […] The samples were analyzed using LCMS/MS (Agilent rapid resolution HPLC, AB SCIEX 4500 MS). The permeability (Papp) was calculated by using the normalized (analyte/internal standard) peak areas. Membrane integrity was calculated from the Papp of Lucifer yellow (acceptable values <50nm/s) using a Modulus microplate reader. […]

For Nc1cc[n+]2c(c1)-c1cc(N)cc[n+]1[Pt-2]21[O+]=C(c2ccccc2)N=C(N(CCO)CCO)[S]1.[Cl-] [C6], the CLs i.v. ([1]; 3 mg/kg i.v.) was 46.4 mL/min/kg, the T1/2 i.v. ([1]; 3 mg/kg i.v.) was 10.8 h and the T1/2 p.o. ([1]; 10 mg/kg p.o.) was 12.0 h. For the same compound, the Bioavailability ([1]; 10 mg/kg p.o. vs 3 mg/kg i.v.) was 3.8%, the Vss i.v. ([1]; female Balb/C mice, 3 mg/kg i.v.) was 45.6 L/kg and the Vssu ([1]; i.v., unbound fraction) was 4560 L/kg. For the same compound, the CLu ([1]; p.o., unbound fraction) was over 1000 mL min^–1 kg^–1, the CLu i.v. ([1]; unbound fraction, Clu = Cls/Fu, i.v.) was over 1000 mL/min/kg and the Vssu i.v. ([1]; unbound fraction, Vssu = Vss/Fu, 3 mg/kg i.v.) was 4560 L/kg. The “Average logK ± SEM” value ([2]; N = 3, PBS) was 2.58 ± 0.19, the “LogK N = 1” value ([2]; replicate N = 1) was 2.80 and the “LogK N = 2” value ([2]; replicate N = 2) was 2.21. The “LogK N = 3” value ([2]; replicate N = 3) was 2.74, the “ABS (% inhibition) 1 µM” value ([3]; 1 µM) was 100.7 % inhibition and the “ABS (% inhibition) 5 µM” value ([3]; 5 µM) was 100.2 % inhibition. The “Microsomal metabolic stability (% remaining after 30 min) Mouse” value [4] was 94 % remaining, the “Aqueous solubility pH 6.5” value [5] was 100 μM and the Fu ([6]; Fu = (100 – PPB)/100) was 0.01. The “PPB (% bound)” value ([6]; human plasma, 5 µM) was 99% bound.
